Source: patent US4937242A, “1,4-dihydropyridine derivatives and pharmaceutical composition thereof” (Kyoto Pharmaceutical Industries, Ltd., priority 1987, dated 1990)
Converted amounts (≈) assume the structure as drawn. Structures can show the parent of a compound that is named as a salt.

Key:
[1] = system: spontaneously hypertensive rats; assay: Hypotensive activity in male spontaneously hypertensive rats (oral); assay type: in vivo, rat; conditions: systolic pressure at tail vein, oral 10 mg/kg
Description: Hypotensive activity [Method] Male spontaneously hypertensive rats at the 12th to 16th week in age and presenting a systolic pressure of around 200 mmHg were used as experimental animals, and 3 to 8 animals were assigned to each group. The subject compound (indicated by the example number), in an aqueous solution or 5% gum arabic suspension, was orally administered in a dose of 10 mg/kg. At the 4th and 8th hours following the administration, the systolic pressure at tail vein of each rat was noninvasively measured by means of a sphygmomanometer (USM-105, Ueda Seisakusho, Japan). A group of rats administered the solvent alone was used as a control group.
Gum arabic or water was administered to rats of the control group.

[2] = Water solubility test; assay type: physicochemical; conditions: powdered, 20°±5° C., within 30 minutes, read-out: Amount (ml) of water required to dissolve 1 g of the subject compounds (converted)
Description: The subject compounds (indicated by the example number), after being powdered, were placed in water and vigorously shaken at 20°±5° C. for 30 seconds a 5-minute intervals, and within 30 minutes, the amount of water required to dissolve 1 g of the compound (I) of the present invention therein was measured.

Structure (SMILES) | Change in blood pressure, 4 hours after administration [1] [mmHg] | Change in blood pressure, 8 hours after administration [1] [mmHg] | solubility at 0.5 h [2] [mg/mL]
COC(=O)C1=C(C)NC(C)=C(C(=O)OCC(C)(C)CN2CCN(CC#N)CC2)C1c1cccc([N+](=O)[O-])c1.Cl.Cl (centres unmarked) [Example 23, 3-(4-Cyanomethyl-1-piperazinyl)-2,2-dimethylpropyl methyl 2,6-dimethyl-4-(m-nitrophenyl)-1,4-dihydropyridine-3,5-dicarboxylate dihydrochloride] | -104 | -82 | 500
COC(=O)C1=C(C)NC(C)=C(C(=O)OCCN(C)Cc2ccccc2)C1c1cccc([N+](=O)[O-])c1 (centres unmarked) [Nicardipine, nicardipine, reference compound] | -29 | -22 | 6.25 (≈ 13 mM)
COC(=O)C1=C(C)NC(C)=C(C(=O)OCC(C)(C)CN2CCN(CCC#N)CC2)C1c1cccc([N+](=O)[O-])c1 (centres unmarked) [Example 14, 2,2-Dimethyl-3-[4-(2-cyanoethyl)-1-piperazinyl]propyl Methyl 1,4-Dihydro-2,6-dimethyl-4-(3-nitrophenyl)-3,5-pyridinedicarboxylateDihydrochloride] | -43 | -88 | 500
COC(=O)C1=C(C)NC(C)=C(C(=O)OCC(C)(C)CN2CCN(CCO)CC2)C1c1cccc([N+](=O)[O-])c1 (centres unmarked) [Example 15, 2,2-Dimethyl-3-[4-(2-hydroxyethyl)-1-piperazinyl]propyl Methyl 1,4-Dihydro-2,6-dimethyl-4-(3-nitrophenyl)-3,5-pyridinedicarboxylateDihydrochloride] | -52 | -47 | 500
COC(=O)C1=C(C)NC(C)=C(C(=O)OCC(C)(C)CN2CCN(C(C)=O)CC2)C1c1cccc([N+](=O)[O-])c1 (centres unmarked) [Example 8] | -56 | -90 | –
COC(=O)C1=C(C)NC(C)=C(C(=O)OCC(C)(C)CN2CCN(CC(=O)N3CCCC3)CC2)C1c1cccc([N+](=O)[O-])c1 (centres unmarked) [Example 26] | -53 | -32 | 500 (≈ 837 mM)
CC=CCN1CCN(CC(C)(C)COC(=O)C2=C(C)NC(C)=C(C(=O)OC)C2c2cccc([N+](=O)[O-])c2)CC1.Cl.Cl (centres unmarked) [Example 20, 2,2-Dimethyl-3-[4-(2-butenyl)-1-piperazinyl]propyl Methyl 1,4-Dihydro-2,6-dimethyl-4-(3-nitrophenyl)-3,5-pyridinedicarboxylate Dihydrochloride] | -84 | -82 | 625
COC(=O)C1=C(C)NC(C)=C(C(=O)OCC(C)(C)CN2CCN(CC=Cc3ccccc3)CC2)C1c1cccc([N+](=O)[O-])c1.Cl.Cl (centres unmarked) [Example 13, 2,2-Dimethyl-3-(4-cinnamyl-1-piperazinyl)propyl Methyl 1,4-Dihydro-2,6-dimethyl-4-(3-nitrophenyl)-3,5-pyridinedicarboxylate Dihydrochloride] | -69 | -77 | –
COC(=O)C1=C(C)NC(C)=C(C(=O)OCC(C)(C)CN2CCN(C(=O)Cc3ccccc3)CC2)C1c1cccc([N+](=O)[O-])c1 (centres unmarked) [Example 5] | -90 | -87 | –
COC(=O)C1=C(C)NC(C)=C(C(=O)OCC(C)(C)CN2CCN(C(=O)c3ccccc3)CC2)C1c1cccc([N+](=O)[O-])c1.Cl (centres unmarked) [Example 6, 2,2-Dimethyl-3-(4-benzoyl-1-piperazinyl)propyl Methyl 1,4-Dihydro-2,6-dimethyl-4-(3-nitrophenyl)-3,5-pyridinedicarboxylate Hydrochloride] | -64 | -88 | –
COC(=O)C1=C(C)NC(C)=C(C(=O)OCC(C)(C)CN2CCN(C(C)C(C)=O)CC2)C1c1cccc([N+](=O)[O-])c1 (centres unmarked) [Example 19] | -86 | -85 | 500 (≈ 898 mM)
C#CCN1CCN(CC(C)(C)COC(=O)C2=C(C)NC(C)=C(C(=O)OC)C2c2cccc([N+](=O)[O-])c2)CC1 (centres unmarked) [Example 12] | -70 | -102 | 500 (≈ 953 mM)
COC(=O)C1=C(C)NC(C)=C(C(=O)OCC(C)(C)CN2CCN(C(=O)C=Cc3ccccc3)CC2)C1c1cccc([N+](=O)[O-])c1 (centres unmarked) [Example 7] | -76 | -84 | –
CCOC(=O)CN1CCN(CC(C)(C)COC(=O)C2=C(C)NC(C)=C(C(=O)OC)C2c2cccc([N+](=O)[O-])c2)CC1 (centres unmarked) [Example 25] | – | – | 500 (≈ 873 mM)
COC(=O)C1=C(C)NC(C)=C(C(=O)OCC(C)(C)CN2CCN(CCN3CCCCC3)CC2)C1c1cccc([N+](=O)[O-])c1 (centres unmarked) [Example 16] | -34 | -52 | 500 (≈ 836 mM)
C=C(C)CN1CCN(CC(C)(C)COC(=O)C2=C(C)NC(C)=C(C(=O)OC)C2c2cccc([N+](=O)[O-])c2)CC1 (centres unmarked) [Example 17] | -112 | -107 | 312 (≈ 578 mM)
CNC(=O)CN1CCN(CC(C)(C)COC(=O)C2=C(C)NC(C)=C(C(=O)OC)C2c2cccc([N+](=O)[O-])c2)CC1 (centres unmarked) [Example 27] | -83 | -60 | 500 (≈ 897 mM)
C=CCN1CCN(CC(C)(C)COC(=O)C2=C(C)NC(C)=C(C(=O)OC)C2c2cccc([N+](=O)[O-])c2)CC1.Cl.Cl (centres unmarked) [Example 2, 3-(4-allyl-1-piperazinyl)-2,2-dimethylpropyl methyl 2,6-dimethyl-4-(m-nitrophenyl)-1,4-dihydropyridine-3,5-dicarboxylate dihydrochloride] | -81 | -104 | 500
COC(=O)C1=C(C)NC(C)=C(C(=O)OCC(C)(C)CN2CCN(CCO[N+](=O)[O-])CC2)C1c1cccc([N+](=O)[O-])c1 (centres unmarked) [Example 24] | -91 | -69 | 500 (≈ 869 mM)
C#CCCCN1CCN(CC(C)(C)COC(=O)C2=C(C)NC(C)=C(C(=O)OC)C2c2cccc([N+](=O)[O-])c2)CC1.Cl.Cl (centres unmarked) [Example 21, 2,2-Dimethyl-3-[4-(4-pentynyl)-1-piperazinyl]propyl Methyl 1,4-Dihydro-2,6-dimethyl-4-(3-nitrophenyl)-3,5-pyridinedicarboxylate Dihydrochloride] | -112 | -98 | 500
